The record followed here is patent publication US6372297B1, “Wood preservative oxathiazines” (Uniroyal Chemical Company, Inc., priority 1993, dated 2002).

Read-outs that look alike come from different tables or passages of the source. Where only a bound is given, the exact number is not on record here.

Holding throughout (assay type): cell-based
In one experiment the test system is Coniophora puteana. In words: Wood preservative efficacy against fungi, agar plate colony diameter. Set-up: key: 0 = no fungal growth, 1-3 = 25/50/75% of untreated, 4 = equal. As to conditions: 10 ppm, Table 6B. On the procedure: (§1) Each plate was inoculated with a spore suspension or with a small piece of agar (1 mm) from the margin of an actively growing colony of the test fungus. The fungi employed are listed below. After incubation at 22° C. and 70% relative humidity during a period long enough to allow significant growth of untreated controls, the diameters of the fungus colonies were measured and scored using the following rating system: 0=free of fungal growth 1=25% of fungal growth compared to untreated 2=50% of fungal growth compared to untreated 3=75% of fungal growth compared to untreated 4=Growth equal to that of untreated The scores measured for wood preservation efficacy of the compounds of this invention are listed in Tables 6a and 6b. In these Tables, the lower numbers are the most preferred species. Coniophora puteana (syn. C. cerebella)

The next experiment deals with Aspergillus niger. The experiment is described as above. As to conditions: 10 ppm, Table 6B. On the procedure: as §1, with “Aspergillus niger” for “Coniophora puteana (syn. C. cerebella)”
In a further experiment the test system is Bacillus cereus mycoides. Also on record: scale not given here.
A further experiment relates to Pseudomonas alcaligenes. In words: Wood preservative efficacy against bacteria and yeasts, tryptose agar plates. Also on record: key: 0 = growth equal to control, 1 = inhibition, 2 = no growth. As to conditions: 100 ppm in tryptose agar. On the procedure: Compositions were prepared by dissolving the compounds shown in Table 1 in 50% ethanol and further diluting with sterile distilled water. […] After cooling, the medium was inoculated with the bacteria listed below. After sufficient growth of the untreated cultures, the compounds were evaluated using the following rating system: 0=growth equal to control 1=inhibition of growth by the compound 2=no growth under the influence of the compound. In this Table, the higher numbers are the most preferred species. Pseudomonas alcaligenes (gram neg)

Another experiment concerns Penicillium islandicum. Put plainly: Wood preservative efficacy against fungi, agar plate colony diameter. Set-up: key: 1 = 25%, 2 = 50%, 3 = 75%, 4 = 100% of untreated fungal growth. Particulars: 10 ppm, Table 6B. On the procedure:
The compounds shown in Table 1 were dissolved in 50% ethanol and then diluted with sterile water to give the required concentrations of 1 and 10 ppm in the test agar plates. Malt extract sugar (3%) was added aseptically and uniform distribution was obtained by shaking. Each plate was inoculated with a spore suspension or with a small piece of agar (1 mm) from the margin of an actively growing colony of the test fungus. The fungi employed are listed below. After incubation at 22° C. and 70% relative humidity during a period long enough to allow significant growth of untreated controls, the diameters of the fungus colonies were measured and scored using the following rating system:
1=25% of fungal growth compared to untreated
2=50% of fungal growth compared to untreated
3=75% of fungal growth compared to untreated
4=Growth equal to that of untreated
In these Tables, the lower numbers are the most preferred species.

The next experiment concerns Flavobacterium sp. In words: Wood preservative efficacy against bacteria and yeasts, tryptose agar plates. Also on record: key: 0 = growth equal to control, 1 = growth inhibited, 2 = no growth. On the procedure:
Compositions were prepared by dissolving the compounds shown in Table 1 in 50% ethanol and further diluting with sterile distilled water. […] After cooling, the medium was inoculated with the bacteria listed below. After sufficient growth of the untreated cultures, the compounds were evaluated using the following rating system: 0=growth equal to control 1=inhibition of growth by the compound 2=no growth under the influence of the compound. In this Table, the higher numbers are the most preferred species. Flavobacterium sp. (gram neg)

The test system of a further experiment is Mucor sp. Put plainly: Wood preservative efficacy against fungi, agar plate colony diameter. As to conditions: 100 ppm, Table 6B. On the procedure:
as §1, with “Mucor sp.” for “Coniophora puteana (syn. C. cerebella)”

In experiment [1] the test system is molds and blue-stain fungi. In words: In vitro activity against molds and blue-stain fungi, poison plate assay (MIC). Particulars: malt extract agar, complete inhibition. The procedure, abridged:
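Poison plate format: compound diluted in sterile water and mixed into malt extract agar, then plates inoculated with each fungus. Growth inhibition scored at each concentration to give the MIC.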

The subject of the next experiment is Streptomyces albus. Put plainly: Wood preservative efficacy against bacteria and yeasts, tryptose agar plates. Also on record: key: 0 = growth equal to control, 1 = inhibition, 2 = no growth. On the procedure: Compositions were prepared by dissolving the compounds shown in Table 1 in 50% ethanol and further diluting with sterile distilled water. […] After cooling, the medium was inoculated with the bacteria listed below. After sufficient growth of the untreated cultures, the compounds were evaluated using the following rating system: 0=growth equal to control 1=inhibition of growth by the compound 2=no growth under the influence of the compound. In this Table, the higher numbers are the most preferred species. Streptomyces albus (gram pos)

On to `C[S+]1CCON=C1c1cc(Cl)cc(Cl)c1` (stereo not drawn) [Compound 19], for which, in the experiment on Coniophora puteana, the “Score of fungicidal activity, C. PUTEANA” value is 3 (75% of growth compared to untreated control). Besides, the “Score of fungicidal activity, A. NIGER” value in the experiment on Aspergillus niger worked out at 0. Moreover, the “Score of bactericidal activity, B. cereus mycoides” value (shortened to “Score … B. cereus mycoides”) in the experiment on Bacillus cereus mycoides (10 ppm in tryptose agar) came to 0; with Bacillus cereus mycoides (100 ppm in tryptose agar), 2. In addition, the “Score of bactericidal activity, P. alcalgenes” value (“Score … P. alcalgenes” below) with Pseudomonas alcaligenes stood at 0. In addition, the “Score of fungicidal activity, P. ISLANDICUM” value (“Score … P. ISLANDICUM” for short) in the experiment on Penicillium islandicum turned out to be 0. The “Score of bactericidal activity, Flavobacter” value (from here on “Score … Flavobacter”) in the experiment on Flavobacterium sp. (10 ppm in tryptose agar) is 0; in the experiment with Flavobacterium sp. (100 ppm in tryptose agar), 2. In addition, the “Score of fungicidal activity, MUCOR SP” value with Mucor sp. was 2 (50% of growth compared to untreated control). Besides, in experiment [1] (A. amstelodami), the “MIC (ppm) against A. amstelodami” value worked out at 25 ppm. Further, the “MIC (ppm) against A. versicolor” value in experiment [1] (A. versicolor) turned out to be 25 ppm. In addition, the MIC (as a rule, the lowest concentration found to suppress growth) in [1] (Aspergillus niger, A. niger, read-out: MIC (ppm) against A. niger) is 2.5 µg/mL; in experiment [1] (Aureobasidium pullulans, A. pullulans, read-out: MIC (ppm) against A. pullulans) it was 25 µg/mL; in experiment [1] (Cladosporium cladosporioides, C. cladosporioides, read-out: MIC (ppm) against C. cladosporioides), 25 µg/mL; in experiment [1] (Geotrichum candidum, G. candidum, read-out: MIC (ppm) against G. candidum) it was over 25 µg/mL; in [1] (Trichoderma viride, T. viride, read-out: MIC (ppm) against T. viride), 25 µg/mL. Moreover, the “MIC (ppm) against C. pilifera” value in experiment [1] (C. pilifera) is listed as 10 ppm. Moreover, the “MIC (ppm) against F. solani” value in [1] (F. solani) is over 25 ppm. Besides, the “MIC (ppm) against P. purpurogenum” value in experiment [1] (P. purpurogenum) was 25 ppm. Besides, in experiment [1] (P. variotii), the “MIC (ppm) against P. variotii” value is reported as 25 ppm. Besides, the “MIC (ppm) against P. violacea” value in experiment [1] (P. violacea) is over 25 ppm. The “MIC (ppm) against S. atra” value in experiment [1] (S. atra) is recorded as 25 ppm. Besides, in experiment [1] (S. entoxylina), the “MIC (ppm) against S. entoxylina” value came out at 25 ppm. For the same compound, in experiment [1] (U. atrum), the “MIC (ppm) against U. atrum” value is over 25 ppm. Besides, the entries for the “Score of bactericidal activity, S. albus” value in the experiment on Streptomyces albus (10 ppm in tryptose agar) and in the experiment on Streptomyces albus (100 ppm in tryptose agar) were 0 and 2, respectively.

Turning to `COC(=O)c1cccc(C2=NOCC[S+]2[O-])c1` (stereo not drawn) [Compound 26], the “Score of fungicidal activity, C. PUTEANA” value in the experiment with Coniophora puteana came out at 4. Moreover, the “Score of fungicidal activity, A. NIGER” value in the experiment on Aspergillus niger stood at 4. In addition, the “Score … B. cereus mycoides” value in the experiment with Bacillus cereus mycoides (10 ppm in tryptose agar) and in the experiment on Bacillus cereus mycoides (100 ppm in tryptose agar) was 2 in each case. Also, the “Score … P. alcalgenes” value with Pseudomonas alcaligenes is 0. The “Score … P. ISLANDICUM” value with Penicillium islandicum was 4. Further, the “Score … Flavobacter” value with Flavobacterium sp. (10 ppm in tryptose agar) came out at 0; in the experiment with Flavobacterium sp. (100 ppm in tryptose agar), 2. Further, the “Score of fungicidal activity, MUCOR SP” value in the experiment on Mucor sp. is reported as 2 (50% of growth compared to untreated control). Also, the entries for the “Score of bactericidal activity, S. albus” value in the experiment on Streptomyces albus (10 ppm in tryptose agar) and with Streptomyces albus (100 ppm in tryptose agar) were 0 and 2, respectively.

With `CCOc1ccc(C2=NOCC[S+]2C)cc1` (stereo not drawn) [Compound 28], the “Score of fungicidal activity, C. PUTEANA” value with Coniophora puteana is recorded as 0. Moreover, in the experiment on Aspergillus niger, the “Score of fungicidal activity, A. NIGER” value was found to be 4. Also, the entries for the “Score … B. cereus mycoides” value in the experiment on Bacillus cereus mycoides (10 ppm in tryptose agar) and in the experiment with Bacillus cereus mycoides (100 ppm in tryptose agar) were 1 and 2, respectively. Moreover, in the experiment on Pseudomonas alcaligenes, the “Score … P. alcalgenes” value is recorded as 0. Moreover, in the experiment on Penicillium islandicum, the “Score … P. ISLANDICUM” value was 4. Besides, the entries for the “Score … Flavobacter” value with Flavobacterium sp. (10 ppm in tryptose agar) and with Flavobacterium sp. (100 ppm in tryptose agar) were 0 and 2, respectively. In addition, the “Score of fungicidal activity, MUCOR SP” value in the experiment with Mucor sp. is 1 (25% of growth compared to untreated control). Besides, the “Score of bactericidal activity, S. albus” value is given as 1 in the experiment on Streptomyces albus (10 ppm in tryptose agar) and 2 with Streptomyces albus (100 ppm in tryptose agar).
